Data on one molecule can be found in patent US20050171119A1, “Pharmaceutical formulations with modified release” (UCB, S.A., priority 2002, published 2005).

As usually defined, the Cmax is the peak of the concentration-time curve. The Tmax is the time at which the peak concentration occurs. Broadly, the AUC is the area under the concentration-time curve, a measure of exposure.

The nature of data set [1]: Crossover trial: 10 mg IR solution plus 25 mg PR tablet J, fasting or after a meal, vs 15 mg IR solution twice. It counts as in vivo, human volunteers. The conditions noted are these: human, plasma, oral, IR solution 15 mg × 2, 12-hour interval; for Cmax / Tmax: 15 mg. Here is the method:
In a crossover trial, 12 volunteers received 3 types of treatments: • 10 mg of IR efletirizine in the form of a solution and one PR tablet of 25 mg of efletirizine (J) while fasting; • 10 mg of IR efletirizine in the form of a solution and one PR tablet of 25 mg of efletirizine (J) after a standardized fatty meal; • 15 mg of IR efletirizine in the form of a solution, taken twice with a 12-hour interval
The first 3 components are granulated. The last 3 are then added and the mixture is compressed. The tablet J is a repeat of the composition of the tablet F, to which a granulating agent, Povidone K30™, has been added.

The nature of data set [2]: Administration of 60 mg IR efletirizine gelatin capsule: influence of a meal. It counts as in vivo, patients. The conditions noted are these: for AUC / Cmax / Tmax: human, in vivo, oral, 60 mg, 60 mg gelatin capsule. The protocol:
A gelatin capsule containing 60 mg of efletirizine was administered to 20 fasting patients and to 22 patients who had eaten a standardized fatty meal beforehand.

Data set [3] concerns the target histamine H1 receptor (Homo sapiens, UniProt P35367). The note with it: background statement; cited from earlier work.
A short description of data set [4]: Administration of 2 times 15 mg of efletirizine in solution with a 12-hour interval. The data set is classed as in vivo, healthy volunteers. The conditions noted are these: human, plasma, oral, 2 times 15 mg in solution; for Cmax / Tmax: 15 mg. The protocol: Two times 15 mg of efletirizine in solution were administered to 12 healthy volunteers, with a 12-hour interval.

Where [5] appears, read: second dose, read-out: Cmax (2).
Setting [6] is: second dose, read-out: tmax (2).
[7] abbreviates: 60 mg IR gelatin capsule, after a meal vs fasting.
Where [8] appears, read: after a standardized fatty meal.

Sequence of histamine H1 receptor (P35367 whole entry, species assumed): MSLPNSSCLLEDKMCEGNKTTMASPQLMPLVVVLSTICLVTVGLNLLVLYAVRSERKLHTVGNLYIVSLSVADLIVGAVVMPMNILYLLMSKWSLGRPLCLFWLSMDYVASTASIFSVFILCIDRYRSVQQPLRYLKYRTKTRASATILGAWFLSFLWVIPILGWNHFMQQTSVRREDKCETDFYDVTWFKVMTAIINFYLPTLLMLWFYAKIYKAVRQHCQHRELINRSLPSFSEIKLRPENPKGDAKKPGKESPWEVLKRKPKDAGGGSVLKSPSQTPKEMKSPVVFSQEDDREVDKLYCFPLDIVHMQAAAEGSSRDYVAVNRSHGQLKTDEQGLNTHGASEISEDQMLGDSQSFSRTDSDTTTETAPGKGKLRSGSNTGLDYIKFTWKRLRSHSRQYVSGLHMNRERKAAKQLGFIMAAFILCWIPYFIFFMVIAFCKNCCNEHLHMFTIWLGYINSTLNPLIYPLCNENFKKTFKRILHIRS

With `O=C(O)COCCN1CCN(C(c2ccc(F)cc2)c2ccc(F)cc2)CC1` [efletirizine, 2-[2-[4-[Bis(4-fluorophenyl)methyl]-1-piperazinyl]-ethoxy]acetic acid], the Cmax in data set [1] (first dose, read-out: Cmax (1)) was 0.307 µg/mL; in data set [1] (setting [5]), 0.305 µg/mL; in data set [2] (setting [8]), 0.855 µg/mL; in data set [2] (fasting), 1.47 µg/mL; in data set [4] (first dose, read-out: Cmax(1)) it was 0.307 µg/mL; in data set [4] (setting [5]), 0.305 µg/mL. Besides, the Tmax in data set [1] (first dose, read-out: tmax (1)) was found to be 0.6 h; in data set [1] (setting [6]), 12.6 h; in data set [2] (setting [8]), 3.03 h; in data set [2] (fasting), 0.77 h; in data set [4] (first dose, read-out: tmax (1)), 0.6 h; in data set [4] (setting [6]), 12.6 h. The AUC in data set [1] came out at 2.8 µg·h/mL; in data set [2] (setting [8]), 5.78 µg·h/mL; in data set [2] (fasting), 6.35 µg·h/mL; in data set [4], 2.8 µg·h/mL. Moreover, in data set [2] (setting [7]), the “decrease of Cmax by having a meal” value is listed as 42%. In addition, the “influence of a meal on bioavailability” value in data set [2] (setting [7]) is on record as “decreased”. Moreover, the “affinity in vitro for H1 receptors” value in data set [3] is “great affinity”. Further, the “selectivity in vitro for H1 receptors” value in data set [3] was “great selectivity”.
